Reference: patent publication US11840686B2, “Modulation of prekallikrein (PKK) expression” (Ionis Pharmaceuticals, Inc., priority 2013, dated 2023)
Strand notation (5' to 3'): a small letter for the sugar, then the base; units joined by * are phosphorothioate-linked, units joined directly phosphodiester-linked; [ ] holds rarer units or linkages, { } end groups; capitals alone tell only the bases. e = 2'-O-(2-methoxyethyl) (MOE); [5mC] = 5-methylcytosine; d = 2'-deoxy (DNA)

Test system: human PKK mRNA
Experiment: Antisense inhibition of human PKK mRNA in HepaRG cells, 5,000 nM (Example 2)
Assay type: cell-based
Procedure, shortened: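 HepaRG cells (20,000/well) electroporated with 5,000 nM MOE gapmer (phosphorothioate backbone, 5-methylcytosines) and harvested after ~24 h. PKK mRNA measured by qRT-PCR with primer probe set RTS3454, normalized to RIBOGREEN total RNA; percent inhibition versus untreated cells.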

[1] = HepaRG cells, electroporation with 5,000 nM antisense oligonucleotide, approximately 24 hours, PKK mRNA by RT-PCR (RTS3454), relative to untreated control cells, Table 5 experiment
[2] = human PKK mRNA in HepaRG cells, 5-10-5 gapmers, Table 14
[3] = HepaRG cells, 5,000 nM antisense oligonucleotide, 5-10-5 gapmers, Table 16
[4] = Table 13, human PKK mRNA in HepaRG cells, 5-10-5 gapmers
[5] = human PKK mRNA, HepaRG cells, 5,000 nM antisense oligonucleotide, Table 18
[6] = human PKK mRNA, HepaRG cells, 5-10-5 motif oligonucleotides targeting SEQ ID NO: 1 and 10
[7] = HepaRG cells, electroporation, 5,000 nM antisense oligonucleotide, approx. 24 hours, primer probe set RTS3454, relative to untreated control cells, Table 11
[8] = Table 8, HepaRG cells, electroporation with 5,000 nM antisense oligonucleotide, approx. 24 hours, PKK mRNA by RT-PCR (RTS3454), relative to untreated control cells
[9] = HepaRG cells, electroporation, 5,000 nM antisense oligonucleotide, approx. 24 hours, primer probe set RTS3454, relative to untreated control cells, Table 12
[10] = Table 9 experiment, HepaRG cells, 20,000 cells per well, electroporation with 5,000 nM antisense oligonucleotide, approx. 24 hours, PKK mRNA by RT-PCR (RTS3454), relative to untreated control cells
[11] = Table 10 experiment, HepaRG cells, 20,000 cells per well, electroporation with 5,000 nM antisense oligonucleotide, approx. 24 hours, PKK mRNA by RT-PCR (RTS3454), relative to untreated control cells

547296 (antisense eT*eG*e[5mC]*eA*e[5mC]*d[5mC]*dT*d[5mC]*dA*dT*d[5mC]*dT*dG*dG*d[5mC]*eA*eG*eT*eA*eT) [compound 547296]
% inhibition [1]: 72%

547604 (antisense eA*eT*eA*eT*e[5mC]*dA*d[5mC]*dT*dG*dT*dA*d[5mC]*d[5mC]*dT*dA*eT*eA*eA*e[5mC]*eT) [compound 547604]
% inhibition [2]: 0%

547692 (antisense e[5mC]*eA*e[5mC]*eT*eG*dT*dA*d[5mC]*d[5mC]*dT*dA*dT*dA*dA*d[5mC]*eT*eG*eT*eA*eA) [compound 547692]
% inhibition [3]: 47%

546840 (e[5mC]*eT*eG*eT*e[5mC]*d[5mC]*dT*dA*dT*dA*dA*d[5mC]*dT*d[5mC]*dT*eA*eA*e[5mC]*eA*eG; antisense) [compound 546840]
% inhibition [4]: 53%

547558 (e[5mC]*e[5mC]*e[5mC]*e[5mC]*e[5mC]*dA*dG*dT*dT*d[5mC]*d[5mC]*d[5mC]*dA*dT*dG*e[5mC]*eA*eA*eG*eG; antisense) [compound 547558]
% inhibition [4]: 52%

548747 (antisense eT*eA*e[5mC]*eT*dA*dG*dT*dT*dT*d[5mC]*d[5mC]*dT*dA*dT*eA*eA*e[5mC]*eT) [compound 548747]
% inhibition [5]: 2%

547630 (antisense eA*e[5mC]*eT*eG*eT*d[5mC]*d[5mC]*dT*dA*dT*dA*dT*d[5mC]*dA*d[5mC]*eT*e[5mC]*eT*eA*e[5mC]) [compound 547630]
% inhibition [6]: 76%

546529 (eG*e[5mC]*eA*e[5mC]*e[5mC]*dT*dG*dG*d[5mC]*dA*dG*dA*dA*d[5mC]*dA*eG*eT*eA*e[5mC]*e[5mC]; antisense) [compound 546529]
% inhibition [3]: 65%

547326 (antisense eA*eT*eG*eA*e[5mC]*d[5mC]*dA*d[5mC]*dA*dT*dT*dG*d[5mC]*dT*dT*e[5mC]*eA*eA*eG*eG) [compound 547326]
% inhibition (HepaRG cells, electroporation with 5,000 nM antisense oligonucleotide, approximately 24 hours, PKK mRNA by RT-PCR (RTS3454), relative to untreated control cells, Table 6 experiment): 48%

546148 (e[5mC]*eG*eT*eT*eT*dT*d[5mC]*dA*dT*dA*dG*dA*dG*dT*dT*eG*eA*eG*eT*e[5mC]; antisense) [compound 546148]
% inhibition [1]: 68%

546756 (eA*eT*eA*eA*eG*d[5mC]*dA*dT*d[5mC]*dT*d[5mC]*dT*d[5mC]*dT*dG*eA*e[5mC]*e[5mC]*eT*eA; antisense) [compound 546756]
% inhibition [4]: 47%

547512 (antisense eG*e[5mC]*eA*eG*eA*dT*dG*dA*dG*dG*dA*d[5mC]*d[5mC]*d[5mC]*d[5mC]*e[5mC]*e[5mC]*eA*eG*eG) [compound 547512]
% inhibition [7]: 74%

547301 (antisense eT*e[5mC]*eA*eT*eT*dG*dA*dT*dT*dG*dA*dA*d[5mC]*dT*dT*eG*e[5mC]*eT*eG*eG) [compound 547301]
% inhibition [1]: 80%

547689 (antisense eG*eT*eA*eA*e[5mC]*dA*dA*dT*dA*dT*d[5mC]*dA*d[5mC]*dT*dG*eT*e[5mC]*e[5mC]*eT*eA) [compound 547689]
% inhibition [3]: 73%

547626 (antisense eA*e[5mC]*eA*eG*eT*dA*dT*d[5mC]*dA*d[5mC]*dT*dG*dT*d[5mC]*d[5mC]*eT*eA*eT*eG*eT) [compound 547626]
% inhibition [6]: 91%

546252 (eT*e[5mC]*eT*eT*eG*dG*d[5mC]*dA*dA*dA*d[5mC]*dA*dT*dT*d[5mC]*eA*e[5mC]*eT*e[5mC]*e[5mC]; antisense) [compound 546252]
% inhibition [8]: 73%

547600 (antisense eT*eT*eT*e[5mC]*e[5mC]*dT*dA*dT*dA*dA*d[5mC]*dT*dA*dT*dA*eA*e[5mC]*eA*eA*eT) [compound 547600]
% inhibition [2]: 26%

546705 (e[5mC]*e[5mC]*e[5mC]*e[5mC]*eT*dG*dT*dA*dG*dT*dT*dG*dG*d[5mC]*dT*eG*eT*eG*eG*eT; antisense) [compound 546705]
% inhibition [9]: 66%

546381 (antisense eG*eA*eA*eG*eA*dT*dG*d[5mC]*d[5mC]*dA*d[5mC]*dT*d[5mC]*dT*d[5mC]*e[5mC]*eA*eT*eG*e[5mC]) [compound 546381]
% inhibition [7]: 73%

547699 (antisense eT*eA*e[5mC]*e[5mC]*eT*dA*dT*dA*dA*d[5mC]*dT*dA*dT*dA*dA*e[5mC]*eA*eA*eT*eA) [compound 547699]
% inhibition [3]: 10%

547517 (antisense eT*eA*eG*eG*eA*dT*dG*d[5mC]*dA*dA*dA*dG*dA*dA*dG*eA*eT*eG*e[5mC]*e[5mC]) [compound 547517]
% inhibition [7]: 57%

548731 (DNA e[5mC]*eT*eG*eT*dA*d[5mC]*dT*dA*dG*dT*dT*dT*d[5mC]*d[5mC]*eT*eA*eT; antisense) [compound 548731]
% inhibition [5]: 49%

547419 (e[5mC]*eT*eT*eA*eA*dG*dA*dA*dA*d[5mC]*dA*d[5mC]*dT*dT*dA*e[5mC]*eA*e[5mC]*eT*eT; antisense) [compound 547419]
% inhibition [8]: 51%

547666 (eA*eT*e[5mC]*eA*e[5mC]*dT*dG*dT*dA*d[5mC]*d[5mC]*dT*dA*dT*dA*eA*e[5mC]*eT*eA*eT; antisense) [compound 547666]
% inhibition [6]: 71%

547313 (antisense eG*eT*eT*e[5mC]*eG*dA*dT*dG*dT*dA*d[5mC]*dT*dT*dT*dT*eG*eG*e[5mC]*eA*eG) [compound 547313]
% inhibition [1]: 73%

547443 (antisense e[5mC]*e[5mC]*eA*e[5mC]*eT*dG*dG*dT*dG*dT*d[5mC]*d[5mC]*dT*dA*dT*eG*eA*eG*eT*eG) [compound 547443]
% inhibition [8]: 70%

546391 (eG*e[5mC]*eA*eT*eT*dG*dT*d[5mC]*dA*dG*d[5mC]*d[5mC]*d[5mC]*d[5mC]*dT*eG*eG*eT*eT*eA; antisense) [compound 546391]
% inhibition [7]: 54%

547559 (eG*eA*eG*e[5mC]*eA*d[5mC]*dA*dG*dA*dT*d[5mC]*dT*d[5mC]*dT*dT*e[5mC]*eA*eA*eG*eT; antisense) [compound 547559]
% inhibition [4]: 69%

547466 (antisense eG*eT*eA*eT*eA*dA*dA*dT*dT*dG*dT*dG*d[5mC]*dT*dT*eG*eT*eG*eT*e[5mC]) [compound 547466]
% inhibition [10]: 82%
% inhibition [11]: 43%

547284 (antisense eA*eA*eA*eT*eG*dA*dA*dA*dT*dA*dA*dG*dT*dT*dG*e[5mC]*eT*eT*eG*e[5mC]) [compound 547284]
% inhibition [1]: 26%

547449 (antisense eT*eT*eT*eT*eA*dT*dT*dT*dG*dT*dG*dA*dG*dA*dA*eA*eG*eG*eT*eG) [compound 547449]
% inhibition [10]: 71%
% inhibition [11]: 73%

547489 (antisense eA*eG*eA*e[5mC]*eA*d[5mC]*d[5mC]*dA*dG*dG*dT*dT*dG*d[5mC]*dT*e[5mC]*e[5mC]*e[5mC]*eT*eG) [compound 547489]
% inhibition [7]: 34%

547535 (antisense eA*eG*eA*e[5mC]*eA*dG*d[5mC]*d[5mC]*d[5mC]*dA*d[5mC]*d[5mC]*dA*dA*d[5mC]*eA*eA*eT*e[5mC]*eT) [compound 547535]
% inhibition [9]: 28%

547303 (antisense eT*eT*e[5mC]*eT*e[5mC]*d[5mC]*dA*dT*dG*dT*d[5mC]*dA*dT*dT*dG*eA*eT*eT*eG*eA) [compound 547303]
% inhibition [1]: 72%

547290 (antisense eA*eG*e[5mC]*eT*eA*d[5mC]*dA*dT*d[5mC]*d[5mC]*d[5mC]*d[5mC]*dA*d[5mC]*d[5mC]*eT*e[5mC]*eT*eG*eA) [compound 547290]
% inhibition [1]: 76%

547563 (eG*eT*eG*eG*eG*dA*dT*d[5mC]*dA*dG*dA*dG*dA*dA*dT*eG*eA*e[5mC]*eT*eA; antisense) [compound 547563]
% inhibition [4]: 48%

547657 (eA*e[5mC]*eA*eA*eT*dA*dT*d[5mC]*dA*d[5mC]*dT*dG*dT*d[5mC]*d[5mC]*eT*eA*eT*eA*eA; antisense) [compound 547657]
% inhibition [6]: 43%

547518 (antisense eT*e[5mC]*e[5mC]*eT*eT*dA*dG*dG*dA*dT*dG*d[5mC]*dA*dA*dA*eG*eA*eA*eG*eA) [compound 547518]
% inhibition [7]: 51%

546495 (eT*eG*e[5mC]*eA*eT*dA*d[5mC]*dT*d[5mC]*dG*d[5mC]*d[5mC]*dT*dT*dT*eG*eT*eG*eA*e[5mC]; antisense) [compound 546495]
% inhibition [9]: 65%

547274 (antisense eG*eA*eG*eG*eT*dG*dA*dG*dT*d[5mC]*dT*d[5mC]*dT*dT*dG*eT*e[5mC]*eA*e[5mC]*eT) [compound 547274]
% inhibition [1]: 70%

546867 (eA*e[5mC]*e[5mC]*eT*eA*dT*dA*dA*d[5mC]*dT*d[5mC]*dT*dA*dA*d[5mC]*eA*eG*eT*eA*eT; antisense) [compound 546867]
% inhibition [2]: 40%

548733 (DNA e[5mC]*eA*e[5mC]*eT*dG*dT*dA*d[5mC]*dT*dA*dG*dT*dT*dT*e[5mC]*e[5mC]*eT; antisense) [compound 548733]
% inhibition [5]: 84%

546942 (eT*eA*e[5mC]*eA*e[5mC]*dT*dG*dA*dA*d[5mC]*d[5mC]*d[5mC]*d[5mC]*d[5mC]*dT*eT*eA*eG*eG*e[5mC]; antisense) [compound 546942]
% inhibition [3]: 56%
